This data set has as its system rodent carcinogenicity bioassays, tumor incidence. Put plainly: CCRIS carcinogenicity studies. The conditions noted are these: Route: ORAL. The gist of the method:
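Archive of carcinogenicity, mutagenicity, tumor promotion and tumor inhibition results drawn from journals, NCI reports and other sources, expert-reviewed; covers 1985-2011 and is no longer updated.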

Active and inactive are the calls of the source. No rule for the calls is given here.

As to `O=C(O)/C=C/c1ccc(O)c(O)c1`, the carcinogen call is “active; positive” (Species: MOUSE, Strain/Sex: B6C3F1/FEMALE, Dose: 0, 2% IN DIET FOR 96 WK (STUDY DURATION: 96 WK), Tumor Site: Type of Lesion: KIDNEY (TUBULAR CELL): ADENOMA); “inactive; negative” (Species: MOUSE, Strain/Sex: B6C3F1/FEMALE, Dose: 0, 2% IN POWDERED BASAL DIET FOR 96 WK (STUDY DURATION: 96 WK)); “active; positive” (Species: MOUSE, Strain/Sex: B6C3F1/MALE, Dose: 0, 2% IN DIET FOR 96 WK (STUDY DURATION: 96 WK), Tumor Site: Type of Lesion: LUNG (ALVEOLAR CELL): ADENOMA OR ADENOCARCINOMA); “inactive; negative” (Species: MOUSE, Strain/Sex: B6C3F1/MALE, Dose: 0, 2% IN POWDERED BASAL DIET FOR 96 WK (STUDY DURATION: 96 WK)); “active; positive” (Species: RAT, Strain/Sex: F344/FEMALE, Dose: 0, 2% IN DIET FOR 104 WK (STUDY DURATION: 104 WK), Tumor Site: Type of Lesion: FORESTOMACH: PAPILLOMA, CARCINOMA); “active; positive” (Species: RAT, Strain/Sex: F344/FEMALE, Dose: 0, 2% IN DIET FOR 104 WK (STUDY DURATION: 104 WK), Tumor Site: Type of Lesion: FORESTOMACH: SQUAMOUS CELL CARCINOMA). Besides, the carcinogen call was “active; positive” (Species: RAT, Strain/Sex: F344/FEMALE, Dose: 0, 2% IN POWDERED BASAL DIET FOR 104 WK (STUDY DURATION: 104 WK), Tumor Site: Type of Lesion: FORESTOMACH: PAPILLOMA, SQUAMOUS CELL CARCINOMA); “active; positive” (Species: RAT, Strain/Sex: F344/MALE, Dose: 0, 0.4% IN DIET FOR DURATION OF STUDY (STUDY DURATION: 104 WK), Tumor Site: Type of Lesion: FORESTOMACH: PAPILLOMA); “active; positive” (Species: RAT, Strain/Sex: F344/MALE, Dose: 0, 2% IN DIET FOR 104 WK (STUDY DURATION: 104 WK), Tumor Site: Type of Lesion: FORESTOMACH: PAPILLOMA, CARCINOMA); “active; positive” (Species: RAT, Strain/Sex: F344/MALE, Dose: 0, 2% IN DIET FOR 104 WK (STUDY DURATION: 104 WK), Tumor Site: Type of Lesion: FORESTOMACH: SQUAMOUS CELL CARCINOMA); “active; positive” (Species: RAT, Strain/Sex: F344/MALE, Dose: 0, 2% IN POWDERED BASAL DIET FOR 104 WK (STUDY DURATION: 104 WK), Tumor Site: Type of Lesion: FORESTOMACH: PAPILLOMA, SQUAMOUS CELL CARCINOMA); “active; positive” (Species: RAT, Strain/Sex: F344/MALE, Dose: 2% IN THE DIET FOR 104 WK (STUDY DURATION: 104 WK), Tumor Site: Type of Lesion: FORESTOMACH: PAPILLOMA, SQUAMOUS CELL CARCINOMA).
With `CN(C)C(=O)Nc1ccc(Cl)cc1`, the carcinogen call reads like this: (Species: MOUSE, Strain/Sex: B6C3F1/FEMALE, Dose: 0, 5000, 10000 PPM IN DIET FOR 103 WK (STUDY DURATION: 107 WK), Dose: 0, 5000, 10000 PPM IN DIET FOR 103 WK (STUDY DURATION: 107 WK)) “inactive; negative”; (Species: MOUSE, Strain/Sex: B6C3F1/MALE, Dose: 0, 5000, 10000 PPM IN DIET FOR 103 WK (STUDY DURATION: 107 WK), Dose: 0, 5000, 10000 PPM IN DIET FOR 103 WK (STUDY DURATION: 107 WK)) “inactive; negative”; (Species: RAT, Strain/Sex: F344/FEMALE, Dose: 0, 750, 1500 PPM IN DIET FOR 103 WK (STUDY DURATION: 106 WK), Dose: 0, 750, 1500 PPM IN DIET FOR 103 WK (STUDY DURATION: 106 WK)) “inactive; negative”; (Species: RAT, Strain/Sex: F344/MALE, Dose: 0, 750, 1500 PPM IN DIET FOR 103 WK (STUDY DURATION: 106 WK), Dose: 0, 750, 1500 PPM IN DIET FOR 103 WK (STUDY DURATION: 106 WK), Tumor Site: Type of Lesion: LIVER: NEOPLASTIC NODULE, NEOPLASTIC NODULE OR CARCINOMA, KIDNEY: TUBULAR CELL ADENOMA, TUBULAR CELL ADENOCARCINOMA) “active; positive”.
For `ClC(Cl)=C(c1ccc(Cl)cc1)c1ccc(Cl)cc1`, the carcinogen call is, setting by setting: (Species: MOUSE, Strain/Sex: B6C3F1/FEMALE, Dose: 0, 148, 261 PPM IN DIET, TWA, Dose: 0, 148, 261 PPM IN DIET, TWA, Tumor Site: Type of Lesion: LIVER: HEPATOCELLULAR CARCINOMA) “active; positive”; (Species: MOUSE, Strain/Sex: B6C3F1/MALE, Dose: 0, 148, 261 PPM IN DIET, TWA, Dose: 0, 148, 261 PPM IN DIET, TWA, Tumor Site: Type of Lesion: LIVER: HEPATOCELLULAR CARCINOMA) “active; positive”; (Species: MOUSE, Strain/Sex: CF-1/MALE,FEMALE, Dose: 250 PPM IN DIET, Tumor Site: Type of Lesion: LIVER: HEPATOMA) “active; positive”; (Species: RAT, Strain/Sex: OSBORNE-MENDEL/FEMALE, Dose: 0, 242, 462 PPM IN DIET, TWA, Dose: 0, 242, 462 PPM IN DIET, TWA) “inactive; negative”; (Species: RAT, Strain/Sex: OSBORNE-MENDEL/MALE, Dose: 0, 437, 839 PPM IN DIET, TWA, Dose: 0, 437, 839 PPM IN DIET, TWA) “inactive; negative”.

These data come from PubChem BioAssay AID1259411 (Chemical Carcinogenesis Research Information System (CCRIS), 2018).
